Converted amounts (≈) assume the structure as drawn. Structures can show the parent of a compound that is named as a salt. Where two headings read alike, the source gives them in different places.
What was measured:
[1] = Solubility test in PBS buffers of different pH, water and normal saline at room temperature; type: physicochemical; settings: for solubility: thermodynamic from solid
Experimental: Weigh about 50 mg of the crystal form 1 of the maleate of the compound of formula (I) prepared in Example 2, which was added into different bottles. Then PBS buffers with different pH values were prepared. Each of them was added in batches with a small amount into each of the above bottles at room temperature till the crystal form in each bottle was just dissolved. The total amount of the solvent was recorded and the solubility was calculated.
The amorphous form of the free base of the compound of formula (I) was subjected to the same solubility study as above-mentioned.

[2] = system: Acute myeloid leukemia cells MV-4-11; assay: Cell proliferation inhibition, CellTiter-Glo; type: cell-based; settings: MV-4-11 cells
Experimental: Weigh 5.61 mg of the crystal form 1 of the maleate of the compound of formula (I) prepared in Example 2, which was dissolved it in 74.7 μL of DMSO.
Configure 1000× compound storage plate (or called 1000× storage medicine plate): the 100 mM compound storage solution was diluted with DMSO. The starting concentration was 10 mM and 9 concentration gradients (th concentration of the storage solution was 10 mM, 3 mM, 1 mM, 0.3 mM, 0.1 mM, 0.03 mM, 0.01 mM, 0.001 mM and 0.0001 mM respectively) were set. The compound storage plate was sealed with a sealing tape, and stored in a refrigerator at −20° C. for later use.
Acute myeloid leukemia cells MV-4-11 (purchased from ATCC) were selected and seaded into a 96-well plate (140 μL per well) at a density of 5000/well and cultured overnight in a incubator with 37° C., 5% CO2.
1000×storage medicine plates were taken out and melt at room temperature while avoiding light. Then prepare 15× intermediate medicine plates (78.8 μL of medium and 1.2 μL of medicine-containing DMSO storage solution), which were mixed well. 10 μL of the medicine-contained medium (15×) was added into the 96-well cell plates (the final concentration was 10 μM, 3 μM, 1 μM, 0.3 μM, 0.1 μM, 0.03 μM, 0.01 μM, 0.001 μM and 0.0001 μM, respectively, and the final concentration of DMSO was […]), which were gently patted to well-mixed, then put it in a incubator with 37° C., 5% CO2, and continued to incubate for 24 hours.
Then the CellTiter-Glo method was used to detect vitality of the cell under the conditions of each drug concentration, and the rate of cell proliferation inhibition under the corresponding conditions was calculated.

[3] = Hygroscopicity observation on the hydrochloride (Comparative Example 2); type: physicochemical; settings: solid in crystal form obtained with hydrochloric acid
Experimental: Similarly, by using the method described in Example 1 or Example 9, the according salt of the compound of formula (I) were prepared with the hydrochloric acid instead of the maleic acid or the fumaric acid.

[4] = Stability test in a 60° C. drying oven (impurity, content, XRPD); type: physicochemical; settings: for Content % / Total impurity %: 60° C. drying oven
Experimental: The crystal form A of the fumarate of the compound of formula (I) prepared in Example 9 and the crystal form 1 of the maleate of the compound of formula (I) prepared in Example 2 were placed in a 60° C. drying oven for different days (0 days, 7 days, 21 days). Samples were collected and detected to investigate the stability of the crystal forms.
The amorphous form of the free base of the compound of formula (I) was subjected to the same stability study as above-mentioned.
The crystal form 2 of the maleate of the compound of formula (I) prepared in Example 3 was placed in a 60° C. drying oven, and samples were taken and tested for different days (0 days, 7 days, 14 days and 30 days) to investigate the stability of the crystal form.

[5] = Hygroscopicity test by dynamic moisture adsorption instrument (DVS); type: physicochemical; settings: for weight increasement due to moisture absorption: 25° C.
Experimental: Experimental method: this test was carried out by a dynamic moisture adsorption instrument. Weigh 10 mg of a solid sample, which was placed on a balance. The humidity in the sample room was controlled through the program. The sample was placed under the same temperature and different humidity conditions for 7 days, then the quality change of the tested sample was measured with relative humidity. Detection procedure: the humidity change was 0%-95%-0%; the test temperature was 25° C.
The amorphous form of the free base of the compound of formula (I) was subjected to the same hygroscopicity study as above-mentioned. […] When the relative humidity is 95%, the weight increasement due to moisture absorption can reach 9.5%, and the sample after moisture absorption is not easy to desorb.

[6] = Stability test in a 60° C. drying oven (impurity, content, XRPD); type: physicochemical; settings: for Content % / Total impurity %: 60° C. drying oven, 21 days; for change in content or in the characteristic peaks of the XRPD pattern: after 21 days at high temperature (60° C.)
[7] = amorphous form, 60° C., 7th and 14th day

| Solubility (S, mg/mL) ([1]; PBS pH 6.5, room temperature) | Solubility (S, mg/mL) ([1]; PBS pH 7.0, room temperature) | Solubility (S, mg/mL) ([1]; PBS pH 7.5, room temperature) | Solubility (S, mg/mL) ([1]; water, room temperature) | Content % ([4]; 0 day) [%] | Total impurity % ([4]; 0 day) [%] | Content % ([4]; 7 days) [%] | Total impurity % ([4]; 7 days) [%] | hygroscopicity (in words) ([5]; environment humidity RH=60%) | weight increasement due to moisture absorption ([5]; environment humidity RH=60%) | Content % [6] [%] | Total impurity % [6] [%] | change in content or in the characteristic peaks of the XRPD pattern [6] | Content % ([4]; 14 days) [%] | Total impurity % ([4]; 14 days) [%] | SMILES | further results |
| --- | --- | --- | --- | --- | --- | --- | --- | --- | --- | --- | --- | --- | --- | --- | --- | --- |
| 45 mg/mL | 57 mg/mL | 62 mg/mL | 31 mg/mL | 99.91 | 0.09 | 99.88 | 0.12 | weak | about 1% | 99.86 | 0.14 | basically no change | – | – | COC[C@@H](C)N[C@H]1CC[C@H](Nc2cc(-c3csc(NCC4(C#N)CCOCC4)n3)c(Cl)cn2)CC1 [crystal form 1 of the maleate of the compound of formula (I)] | effect on cell growth ([2]; concentration range 0.0001 μM to 0.01 μM): no significant changes in cell growth; effect on cell growth ([2]; concentration range 0.03 μM to 10 μM): significant inhibitory effect |
| – | – | – | – | 99.13 | 0.87 | 98.56 | 1.44 | – | – | – | – | – | 97.73 | 2.27 | COC[C@@H](C)N[C@H]1CC[C@H](Nc2cc(-c3csc(NCC4(C#N)CCOCC4)n3)c(Cl)cn2)CC1 [crystal form 2] | characteristic peaks of the XRPD pattern ([6]; after 14 days at high temperature (60° C.)): basically unchanged |
| – | – | – | – | 99.38 | 0.62 | 99.31 | 0.69 | weak | about 1% | 99.22 | 0.78 | basically no change | – | – | COC[C@@H](C)N[C@H]1CC[C@H](Nc2cc(-c3csc(NCC4(C#N)CCOCC4)n3)c(Cl)cn2)CC1 [crystal form A of the fumarate of the compound of formula (I] | – |
| about 15.10 mg/mL | about 12.5 mg/mL | about 0.44 mg/mL | about 0.1 mg/mL | 99.50 | 0.50 | 98.42 | 1.58 | – | – | – | – | – | 97.44 | 2.56 | COC[C@@H](C)N[C@H]1CC[C@H](Nc2cc(-c3csc(NCC4(C#N)CCOCC4)n3)c(Cl)cn2)CC1 [free base of the compound of formula (I), 4-(((4-(5-chloro-2-(((1R,4r)-4-(((R)-1-methoxypropyl-2-yl)amino)cyclohexyl)amino)pyridin-4-yl)thiazol-2-yl)amino)methyl)tetrahydro-2H-pyran-4-carbonitrile] | solubility ([1]; PBS buffer, pH 7.2, aqueous buffer, PBS pH 7.2, room temperature, read-out: Solubility (S, mg/mL)): ~10.1 mg/mL; solubility compared with crystal form 1 of the maleate (in words) ([1]; same experiment conditions, amorphous free base): significant lower solubility; change in the character (appearance) [4, 7]: changes from a yellow solid to a hard gelatinous substance; hygroscopicity (in words) ([5]; environment humidity higher than 60%, amorphous form): quite strong hygroscopicity; weight increasement due to moisture absorption ([5]; relative humidity 95%): 9.5%; stability (in words) [6, 7]: poor stability |

Continued, molecule first:

| SMILES | Solubility (S, mg/mL) ([1]; PBS pH 6.5, room temperature) | Solubility (S, mg/mL) ([1]; PBS pH 7.0, room temperature) | Solubility (S, mg/mL) ([1]; PBS pH 7.5, room temperature) | Solubility (S, mg/mL) ([1]; water, room temperature) | Content % ([4]; 0 day) [%] | Total impurity % ([4]; 0 day) [%] | Content % ([4]; 7 days) [%] | Total impurity % ([4]; 7 days) [%] | hygroscopicity (in words) ([5]; environment humidity RH=60%) | weight increasement due to moisture absorption ([5]; environment humidity RH=60%) | Content % [6] [%] | Total impurity % [6] [%] | change in content or in the characteristic peaks of the XRPD pattern [6] | Content % ([4]; 14 days) [%] | Total impurity % ([4]; 14 days) [%] | further results |
| --- | --- | --- | --- | --- | --- | --- | --- | --- | --- | --- | --- | --- | --- | --- | --- | --- |
| COC[C@@H](C)N[C@H]1CC[C@H](Nc2cc(-c3csc(NCC4(C#N)CCOCC4)n3)c(Cl)cn2)CC1 [listing 1 of 2 here] | – | – | – | – | – | – | – | – | – | – | – | – | – | – | – | solubility ([1]; PBS buffer, pH 6, aqueous buffer, PBS 6.0, room temperature, read-out: Solubility (S, mg/mL)): 41 mg/mL (≈ 79 mM); solubility ([1]; PBS buffers of different pH, water and normal saline, aqueous buffer, PBS 6.0-7.5, water, normal saline, read-out: solubility in each of the above-mentioned solvents (summary)): 30 to 60 mg/mL (≈ 57.8 to 116 mM); solubility ([1]; normal saline, saline or isotonic, normal saline, room temperature, read-out: Solubility (S, mg/mL)): 50 mg/mL (≈ 96.3 mM); IC50 ([2]; Homo sapiens, MV4-11, 24 hours incubation, CellTiter-Glo, read-out: absolute half inhibitory concentration (ABsIC50)): 32 nM |
| COC[C@@H](C)N[C@H]1CC[C@H](Nc2cc(-c3csc(NCC4(C#N)CCOCC4)n3)c(Cl)cn2)CC1 [listing 2 of 2 here] | – | – | – | – | – | – | – | – | – | – | – | – | – | – | – | hygroscopicity (in words) [3]: very hygroscopic |
